Experimental data as given in patent publication US20090023687A1, “Method for Controlling Phytopathogenic Organisms” (SYNGENTA CROP PROTECTION, INC., priority 2005, published 2009).

What was measured:
Phakopsora pachyrhizi [1] = assay: Leaf disc test with Phakopsora pachyrhizi on glyphosate resistant soybean (Example 1); type: in vivo
Text: (§1) A synergistic effect exists whenever the action of an active ingredient combination is greater than the action expected from the effect of the individual components.
(§2) The action to be expected (E) for a given active ingredient combination obeys the so-called COLBY formula and can be calculated as follows (COLBY, S. R. “Calculating synergistic and antagonistic responses of herbicide combination”. Weeds, Vol. 15, pages 20-22; 1967):
(§3) ppm=milligrams of active ingredient (=a.i.) per litre of spray mixture X=% action by active ingredient I using p ppm of active ingredient Y=% action by active ingredient II using q ppm of active ingredient.
(§4) According to Colby, the expected (additive) action of active ingredients I+II using p+q ppm of active ingredient is
(§5) If the action actually observed (O) is greater than the expected action (E), then the action of the combination is superadditive, i.e. there is a synergistic effect.
A series of leaf disc tests were conducted to show the effects of tank mixtures of glyphosate and fungicides on Asian soybean rust. The soybean variety tested was NK Brand S40-R9 glyphosate resistant soybean. The leaf source for the testing was the first trifoliate leaf. Six (6) repetitions for each formulation and at each rate were conducted. Treatment of the leaf with the recited active ingredients was conducted 29 days after planting. The leaves were inoculated with Phakopsora pachyrhizi (Asian soybean rust (ASR)) one (1) day after treatment. Evaluation of the leaf was conducted ten (10) days after inoculation and the mean percent infestation of the six trials is reported in Table 1.
The glyphosate source was Zapp® QI herbicide (Syngenta Corp.), containing the potassium salt of glyphosate as well as an adjuvant system. The fungicide used was Priori® Xtra (Syngenta Corp.), which is a suspension concentrate containing 200 g/L of azoxystrobin (AZ) and 80 g/L of cyproconazole (CCZ). The rates of the active ingredients used in the tests are set forth in the Table as mg active ingredient (a.i.)/L.

Phakopsora pachyrhizi [2] = assay: whole plant or invertebrate; type: in vivo; conditions: in Glycine max, foliar, read-out: % activity observed
Text: as §1, §2, §3, §4, §5
A series of leaf disc tests were conducted to show the effects of tank mixtures of glyphosate and the ortho-substituted phenyl-amide (OPA) fungicides represented by structures F-5 and F-9 on Asian soybean rust. The soybean variety tested was brand Williams82 glyphosate sensitive soybean. The leaf source for the testing was the first trifoliate leaf. Six (6) repetitions for each formulation and at each rate were conducted. Treatment of the leaf with the recited active ingredients was conducted 4 weeks after planting. The leaves were inoculated with Phakopsora pachyrhizi (Asian soybean rust (ASR)) one (1) day after treatment. Evaluation of the leaf was conducted ten (10) days after inoculation and the mean percent infestation of the six repetitions is reported in Tables 3 and 4.
The glyphosate source was Touchdown® HiTech herbicide (Syngenta Corp.), containing the potassium salt of glyphosate and no adjuvant system. The compound OPA F-5 used was a compound of formula F-5, wherein the ratio of racemic compounds of formula F-3 (syn) to racemic compounds of formula F-4 (anti) was 9:1. The compound OPA F-9 used was a compound of formula F-9, wherein the ratio of racemic compounds of formula F-7 (trans) to racemic compounds of formula F-8 (cis) was around 100:1. The fungicides used were EC100 formulations of OPA F-5 and OPA F-9 which are emulsion concentrates containing 100 ga.i./L. The rates of the active ingredients used in the tests are set in the table as mg active ingredient (a.i.)/L.

O=C(O)CNCP(=O)(O)O [Glyphosate, glyphosate]
% Leaf attack (Phakopsora pachyrhizi [1]; Glyphosate 0.1 mg a.i./L (Zapp QI)): 90%
% Leaf attack (Phakopsora pachyrhizi [1]; Glyphosate 0.39 mg a.i./L (Zapp QI)): 90%
% Leaf attack (Phakopsora pachyrhizi [1]; Glyphosate 1.56 mg a.i./L (Zapp QI)): 100%
% Leaf attack (Phakopsora pachyrhizi [1]; Glyphosate 6.25 mg a.i./L (Zapp QI)): 100%
% Leaf attack (Phakopsora pachyrhizi [1]; Glyphosate 25 mg a.i./L (Zapp QI)): 100%
% Leaf attack (Phakopsora pachyrhizi [1]; Glyphosate 100 mg a.i./L (Zapp QI)): 100%
inhibition at 0.1 µg/mL (Phakopsora pachyrhizi [1]; Phakopsora pachyrhizi, foliar, Glyphosate 0.1 mg a.i./L (Zapp QI), read-out: % Activity observed): 6%
inhibition at 0.39 µg/mL (Phakopsora pachyrhizi [1]; Phakopsora pachyrhizi, foliar, Glyphosate 0.39 mg a.i./L (Zapp QI), read-out: % Activity observed): 6%
inhibition at 1.56 µg/mL (Phakopsora pachyrhizi [1]; Phakopsora pachyrhizi, foliar, Glyphosate 1.56 mg a.i./L (Zapp QI), read-out: % Activity observed): 0%
inhibition at 6.25 µg/mL (Phakopsora pachyrhizi [1]; Phakopsora pachyrhizi, foliar, Glyphosate 6.25 mg a.i./L (Zapp QI), read-out: % Activity observed): 0%
inhibition at 25 µg/mL (Phakopsora pachyrhizi [1]; Phakopsora pachyrhizi, foliar, Glyphosate 25 mg a.i./L (Zapp QI), read-out: % Activity observed): 0%
inhibition at 100 µg/mL (Phakopsora pachyrhizi [1]; Phakopsora pachyrhizi, foliar, Glyphosate 100 mg a.i./L (Zapp QI), read-out: % Activity observed): 0%
inhibition at 2.5 µg/mL (Phakopsora pachyrhizi [2]; Glyphosate 2.5 mg a.i./L (Touchdown HiTech)): 0%
inhibition at 7.4 µg/mL (Phakopsora pachyrhizi [2]; Glyphosate 7.4 mg a.i./L (Touchdown HiTech)): 0%
inhibition at 22.2 µg/mL (Phakopsora pachyrhizi [2]; Glyphosate 22.2 mg a.i./L (Touchdown HiTech)): 14%
inhibition at 66.7 µg/mL (Phakopsora pachyrhizi [2]; Glyphosate 66.7 mg a.i./L (Touchdown HiTech)): 0%
inhibition at 200 µg/mL (Phakopsora pachyrhizi [2]; Glyphosate 200.0 mg a.i./L (Touchdown HiTech)): 0%
inhibition at 600 µg/mL (Phakopsora pachyrhizi [2]; Glyphosate 600 mg a.i./L (Touchdown HiTech)): 34%
